Results reported in patent US10787450B2 (BRISTOL-MYERS SQUIBB COMPANY, priority 2016, dated 2020).

Biological target: ROCK2 (Homo sapiens (Human), UniProt O75116)
Assay: ROCK2 kinase inhibition assay (FITC peptide substrate, LABCHIP 3000 Reader)
Type: biochemical
Conditions: 5 μM ATP, 1.5 μM peptide substrate
How it was run: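 Reaction in 20 mM HEPES pH 7.5, 20 mM MgCl2, 0.015% Brij-35, 4 mM DTT with 5 μM ATP and 1.5 μM FITC-AHA-AKRRRLSSLRA-OH peptide, started with Rho kinase, DMSO <2%. EDTA-stopped; phospho and non-phospho peptide separated by mobility shift. IC50 from dose-response curve fit.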

ROCK2, sequence (O75116 whole entry, species assumed): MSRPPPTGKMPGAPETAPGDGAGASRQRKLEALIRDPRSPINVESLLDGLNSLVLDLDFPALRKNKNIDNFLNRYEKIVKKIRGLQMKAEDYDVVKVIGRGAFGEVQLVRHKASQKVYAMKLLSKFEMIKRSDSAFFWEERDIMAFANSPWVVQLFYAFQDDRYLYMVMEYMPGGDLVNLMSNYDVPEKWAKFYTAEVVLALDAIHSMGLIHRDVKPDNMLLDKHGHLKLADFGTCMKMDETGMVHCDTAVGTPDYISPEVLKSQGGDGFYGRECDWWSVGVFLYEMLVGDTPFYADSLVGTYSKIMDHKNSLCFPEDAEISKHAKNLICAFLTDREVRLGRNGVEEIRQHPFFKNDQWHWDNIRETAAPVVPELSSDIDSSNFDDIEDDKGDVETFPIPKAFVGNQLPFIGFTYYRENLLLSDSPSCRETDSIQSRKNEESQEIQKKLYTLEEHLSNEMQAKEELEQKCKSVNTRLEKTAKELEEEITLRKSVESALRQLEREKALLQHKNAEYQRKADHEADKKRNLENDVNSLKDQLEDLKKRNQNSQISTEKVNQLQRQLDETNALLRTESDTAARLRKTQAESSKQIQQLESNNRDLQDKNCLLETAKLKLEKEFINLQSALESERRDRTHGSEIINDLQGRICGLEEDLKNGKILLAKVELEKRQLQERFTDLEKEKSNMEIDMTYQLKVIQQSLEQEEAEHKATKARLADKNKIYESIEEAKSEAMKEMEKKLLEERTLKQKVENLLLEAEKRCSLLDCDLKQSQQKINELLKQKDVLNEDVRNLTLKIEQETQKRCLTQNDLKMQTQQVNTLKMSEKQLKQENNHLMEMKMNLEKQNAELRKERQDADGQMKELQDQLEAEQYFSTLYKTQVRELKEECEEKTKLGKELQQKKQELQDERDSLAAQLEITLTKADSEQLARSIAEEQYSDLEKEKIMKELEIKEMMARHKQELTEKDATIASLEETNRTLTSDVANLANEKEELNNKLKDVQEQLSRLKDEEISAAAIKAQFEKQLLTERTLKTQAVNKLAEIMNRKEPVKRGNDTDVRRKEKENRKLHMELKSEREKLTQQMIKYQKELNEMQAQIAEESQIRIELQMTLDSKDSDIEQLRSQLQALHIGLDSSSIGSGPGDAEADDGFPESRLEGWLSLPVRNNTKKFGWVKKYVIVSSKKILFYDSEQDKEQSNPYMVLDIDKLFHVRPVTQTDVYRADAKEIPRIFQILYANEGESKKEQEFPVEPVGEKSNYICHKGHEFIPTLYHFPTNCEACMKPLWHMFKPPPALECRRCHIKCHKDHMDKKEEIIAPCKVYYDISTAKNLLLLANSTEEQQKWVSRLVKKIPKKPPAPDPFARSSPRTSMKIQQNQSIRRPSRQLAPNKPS

| SMILES | IC50 [nM] |
| --- | --- |
| O=C1N(c2ccc(-c3cn[nH]c3)cc2)CC2(CCOCC2)N1Cc1ccccc1F [Example 12, 3-(4-(1H-pyrazol-4-yl)phenyl)-1-(2-fluorobenzyl)-8-oxa-1,3-diazaspiro[4.5]decan-2-one] | 30 to 250 |
| CCc1nc(N2CC3(CCN(CCC(F)(F)F)CC3)N(Cc3cccc(F)c3C)C2=O)ccc1-c1cn[nH]c1 [Example 126, 3-(6-ethyl-5-(1H-pyrazol-4-yl)pyridin-2-yl)-1-(3-fluoro-2-methylbenzyl)-8-(3,3,3-trifluoropropyl)-1,3,8-triazaspiro[4.5]decan-2-one] | 3 to 30 |
| O=C1N(c2ccc(-c3cn[nH]c3)cc2)CC2(CCOCC2)N1Cc1ccc(F)cc1F [Example 22, 3-(4-(1H-pyrazol-4-yl)phenyl)-1-(2,4-difluorobenzyl)-8-oxa-1,3-diazaspiro[4.5]decan-2-one] | 30 to 250 |
| COc1cccc(CN2C(=O)N(c3ncc(-c4cn[nH]c4)c(OC)n3)CC23CCN(CC(C)(C)O)CC3)c1 [Example 163, 8-(2-hydroxy-2-methylpropyl)-3-(4-methoxy-5-(1H-pyrazol-4-yl)pyrimidin-2-yl)-1-(3-methoxybenzyl)-1,3,8-triazaspiro[4.5]decan-2-one] | 3 to 30 |
| COc1cccc(CN2C(=O)N(c3ccc(-c4cn[nH]c4)cc3)CC23CCN(CC2CCC2)CC3)c1 [Example 232, 3-(4-(1H-pyrazol-4-yl)phenyl)-8-(cyclobutyl-methyl)-1-(3-methoxy-benzyl)-1,3,8-triazaspiro [4.5]decan-2-one] | < 3 |
| CCc1nc(N2CC3(CCN(CCO)CC3)N(Cc3cc(F)cc(OC)c3)C2=O)ccc1-c1cn[nH]c1 [Example 153, 3-(6-ethyl-5-(1H-pyrazol-4-yl)pyridin-2-yl)-1-(3-fluoro-5-methoxybenzyl)-8-(2-hydroxyethyl)-1,3,8-triazaspiro[4.5]decan-2-one] | < 3 |
| COc1cccc(CN2C(=O)N(c3ccc(-c4cn[nH]c4)cc3)CC23CCN(CC2CCOCC2)CC3)c1 [Example 233, 3-(4-(1H-pyrazol-4-yl)phenyl)-1-(3-methoxy-benzyl)-8-((tetrahydro-2H-pyran-4-yl)methyl)-1,3,8-triazaspiro [4.5]decan-2-one] | < 3 |
| COc1cccc(CN2C(=O)N(c3ccc(-c4cn[nH]c4)cc3)CC23CCN(CC(C)C)CC3)c1 [Example 124, 3-(4-(1H-pyrazol-4-yl)phenyl)-8-isobutyl-1-(3-methoxybenzyl)-1,3,8-triazaspiro[4.5]decan-2-one] | < 3 |
| CCc1nc(N2CC3(CCN(C(=O)C4COC4)CC3)N(Cc3cccc(OC)c3)C2=O)ccc1-c1cn[nH]c1 [Example 185, 3-(6-ethyl-5-(1H-pyrazol-4-yl)pyridin-2-yl)-1-(3-methoxybenzyl)-8-(oxetane-3-carbonyl)-1,3,8-triazaspiro[4.5]decan-2-one] | < 3 |
| COc1cccc(CN2C(=O)N(c3ccc(-c4cn[nH]c4)cn3)CC23CCN(CCC(F)(F)F)CC3)c1 [Example 133, 3-(5-(1H-pyrazol-4-yl)pyridin-2-yl)-1-(3-methoxybenzyl)-8-(3,3,3-trifluoropropyl)-1,3,8-triazaspiro[4.5]decan-2-one] | 3 to 30 |
| COCCN1CCC2(CC1)CN(c1ccc(-c3cn[nH]c3)cc1)C(=O)N2Cc1cccc(OC)c1 [Example 142, 3-(4-(1H-pyrazol-4-yl)phenyl)-1-(3-methoxybenzyl)-8-(2-methoxyethyl)-1,3,8-triazaspiro[4.5]decan-2-one] | 3 to 30 |
| Cc1c(F)cccc1CN1C(=O)N(c2ccc(-c3cn[nH]c3)cc2)CC12CCN(CCO)CC2 [Example 143, 3-(4-(1H-pyrazol-4-yl)phenyl)-1-(3-fluoro-2-methylbenzyl)-8-(2-hydroxyethyl)-1,3,8-triazaspiro[4.5]decan-2-one] | < 3 |
| COc1cccc(CN2C(=O)N(c3ccc(-c4cn[nH]c4)cc3)CC23CCN(CC(=O)N(C)C)CC3)c1 [Example 170, 2-(3-(4-(1H-pyrazol-4-yl)phenyl)-1-(3-methoxybenzyl)-2-oxo-1,3,8-triazaspiro[4.5]decan-8-yl)-N,N-dimethylacetamide] | < 3 |
